Marks after values point to notes of the source that are not given here.
What was measured:
MCF10A WT cells [1] = assay: 11-point dose-response screen, cell titre blue (CTB) viability; type: cell-based, human; details: for EC50 / activity at 20 µM: Homo sapiens, MCF-10A; for activity at 20 µM: viability of WT cells at highest concentration 20 μM, read-out: MCF10A WT POC at 20 μM
Method: (§1) The 11-point dose-response screen evaluated a concentration range from 0.02 µM to 20 µM for both isogenic cell lines in duplicate biological replicates (Fig. 4). One limitation to metabolism-based cellular assays is that a change in read out (fluorescence, luminescence or absorbance) may not necessarily be caused by cell death and could instead result from a cessation of proliferation due to senescence or inhibited mitochondrial respiration. For this reason, a direct measurement of cell counts using cellular imaging of nuclei stained with Hoechst 33342 was also included at the 11-point screening stage. For the CTB 11-point screen all plates had acceptable Z’ values above 0.4, with the second biological replicate having 70% above 0.6 (Fig. 4A). The Z’ values for the high-content imaging (HCI) 11-point screen plates were above 0.4 for MCF10A WT, except one plate from biological replicate two with 0.396 (Fig. 4B). However, for MCF10A CDH1^−/− HCI data, only four plates were above a Z’ of 0.4 and the mean Z’ was 0.32 compared to a mean of 0.51 for MCF10A WT. A further quality metric known as the strictly standardized mean difference (SSMD)[40] is a less conservative approach for QC and a cut-off of >3 is generally used. The mean SSMD value was 7.04 for MCF10A WT and 5.27 for MCF10A CDH1^−/− plates and indicates the MCF10A CDH1^−/− HCI data was acceptable[41]. There was a good correlation between the top hits from the HCI and CTB 11-point screening with an overlap of 31 / 40 for the top 40 compounds selected from the eventual hit selection strategies.
(§2) MCF10A WT and MCF10A CDH1^−/− cells were seeded into Corning black walled, clear bottom 384-well plates (assay plates) using a multidrop 384 reagent dispenser (Thermo Fisher Scientific) and a total volume of 50 μL per well.
(§3) As we have shown MCF10A CDH1^−/− cells have a prolonged lag to log phase growth of around 24 hours, in order to achieve a similar confluence at 72 hours post seeding MCF10A WT and MCF10A CDH1^−/− cell lines were seeded at 600 cells/well and 800 cells/well, respectively. Following seeding, plates were left for one hour at RT without stacking[46] and then centrifuged at 500 × g (RCF) for one minute. Plates were then transferred to an incubator at 37 °C and 5% CO2. At 24 hours post seeding, the MiniTrak robotic liquid handling system (Perkin Elmer) was used to transfer 352 compounds per 384-well library plate to the first 22 columns of a 384-well assay plate containing cells to achieve a 10 μM final compound concentration for the pilot, primary and single-point confirmation screens. For the 11-point dose-response screen, compounds were added to columns 1–22, but excluding edge rows A and P of the library plate to reduce edge-effects (Supplementary Fig. 2). The controls of DMSO (0.2% v/v), doxorubicin (EC80) and entinostat (EC50) were added into columns 23–24 of each assay plate (Supplementary Table 1). Cell titre blue[47] was made in-house in sterile PBS from 597 μM resazurin, 78 μM methylene blue, 1 mM potassium hexacyanoferrate (III) and 1 mM potassium hexacyanoferrate (II) trihydrate. At 69 hours post seeding, 16.7% v/v CTB was added to plates and they were incubated at 37 °C for 3 hours (Supplementary Fig. 1). At 72 hours post seeding, plates were removed from the incubator and left for 30 minutes at RT to equalise the temperature across all wells of the plates and reduce fluorescence-based edge effects before reading on an EnVision (PerkinElmer) at 550 nm excitation and 590 nm emission to quantify cell viability.
(§4) Supplementary Table 1. Killing control and SL control effective concentrations.
(§5) Doxorubicin EC80 0.3 µM 0.4 µM
(§6) MCF10A WT cells were seeded at 600/well and MCF10A CDH1-/- cells at 800/well in 384-well plates. Drugs
(§7) were added at 24 hours post seeding and CTB was used as an end-point assay. Concentrations were normalized

MCF10A CDH1^−/− cells [2] = assay: as above; type: cell-based, human; details: for EC50: Homo sapiens, MCF-10A; for Differential at 20 μM: MCF10A WT – MCF10A CDH1−/− POC at 20 μM
Method: as §1, §2, §3, §4, §5, §6, §7

[3] = system: MCF10A WT and MCF10A CDH1^−/− cells; assay: Single-point confirmation screen (10 μM, CTB, 384-well), viability differential between isogenic lines; type: cell-based, human; details: averaged between three biological replicates, Supplementary Table 2
Method: In the single-point confirmation screen, compounds that preferentially harm MCF10A CDH1^−/− cells compared to the wild-type cells were now identified. Three biological replicates were performed for each of the isogenic cell lines at a single-point (10 μM) in 384-well plates. All assay plates had acceptable Z’ values above 0.4 and 23 out of 48 plates had values above 0.6. The POC R^2 correlation between the three biological replicates for the two isogenic cell lines were all above 0.8 (data not shown). A cell viability differential of ‘MCF10A WT POC – MCF10A CDH1^−/− POC’ was used to select hits. An arbitrary threshold for the mean differential of >8.5% was chosen in order to maximize the number of hits being screened in the subsequent stages and to reduce false negatives.
To incorporate a measure of the variability between replicates of the screen into the hit selection process, a further requirement was included of a minimum of 2/3 biological replicates having viability differentials >8.5%. This removed a further 52 compounds shown in blue with only one out of three biological replicates crossing the Y = X-8.5 line independent of the mean. In total, 256 compounds were above the hit selection threshold, thereby preferentially killing E-cadherin negative cells. The mean POC differential of the 256 hits was 17.6% +/− 7.1 (+/−SD), with the highest being 48% for SLEC-1 (Synthetic Lethal E-Cadherin compound 1). […] The resulting 256 SL compounds were then assayed in an 11-point screen for EC50 determination.
as §2
As we have shown MCF10A CDH1^−/− cells have a prolonged lag to log phase growth of around 24 hours, in order to achieve a similar confluence at 72 hours post seeding MCF10A WT and MCF10A CDH1^−/− cell lines were seeded at 600 cells/well and 800 cells/well, respectively. […] At 72 hours post seeding, plates were removed from the incubator and left for 30 minutes at RT to equalise the temperature across all wells of the plates and reduce fluorescence-based edge effects before reading on an EnVision (PerkinElmer) at 550 nm excitation and 590 nm emission to quantify cell viability.
The coRFU values were then used to calculate the normalized readouts of percent of controls (Eq. 3) and the robust Z score (Eqs 4,5), where doxorubicin refers to an EC80 dose and DMSO was 0.2% v/v.3 coPOC=100×(SamplecoRFU−x¯doxorubicincoRFU)/(x¯DMSOcoRFU−x¯doxorubicincoRFU) 4 MAD=median([…]) 5 CorrectedrobustZscore=(SamplecoRFU−platemediancoRFU)/MAD

MCF10A CDH1^−/− cells [4] = assay: 11-point dose-response screen, high-content imaging (HCI) of Hoechst 33342 nuclei; type: cell-based, human; details: Homo sapiens, MCF-10A; 11-point screen, HCI
Method: as §1
(§8) A direct measurement of cell counts using cellular imaging of nuclei was also included at the 11-point screening stage. Plates were fixed, washed and stained using an ELx405 Select deep well washer (BioTek). Media was first aspirated leaving 10 μL/well, then 4% w/v PFA was added and plates left for 15 minutes at RT. Plates were then washed twice with PBS-T, before aspirating all permeabilization buffer and adding Hoechst 33342 (1 μg/mL final) in PBS. Plates were then stored in the dark at 4 °C, until being imaged on a BD Pathway 855. Two 10x images per well were taken and cell counts enumerated using CellProfiler[48].

MCF10A WT cells [5] = assay: Medium-throughput validation in 96-well plates, Hoechst-33342 nuclei counts (CellProfiler); type: cell-based; details: Homo sapiens, MCF-10A, 96-well validation, at least five concentration points
Method: (§9) Cells were seeded into each well of Corning’s black walled, clear bottom 96-well plates with a total volume of 100 μL per well. Edge wells were excluded. Both isogenic cell lines were seeded into the same plate to mitigate plate-to-plate variation. Plates for real-time analysis were transferred to the xCELLigence platform (ACEA Biosciences, USA) or the IncuCyte FLR imaging system (Essen BioScience, USA) as previously described.
(§10) Seventy-two hours post seeding (or 48 hours post compound addition), plates were assayed for cell viability using a one-step cocktail of PFA (0.25% v/v), saponin (0.075% w/v) and Hoechst 33342 (1 μg/ml final) as described previously. CellProfiler was used to enumerate cell counts as previously described.

MCF10A WT cells [6] = assay: 11-point dose-response screen, high-content imaging (HCI) of Hoechst 33342 nuclei; type: cell-based; details: Homo sapiens, MCF-10A, 11-point screen
Method: as §1, §8

MCF10A CDH1^−/− cells [7] = assay: Medium-throughput validation in 96-well plates, Hoechst-33342 nuclei counts (CellProfiler); type: cell-based, human; details: for EC50 ratio (MCF10A WT/MCF10A CDH1^−/−) / EC50: 96-well validation; for EC50: Homo sapiens, MCF-10A, Hoechst nuclei counts, at least five concentration points; for Differential at 5 µM (%): normalized cell counts MCF10A WT – MCF10A CDH1^−/−, 96-well, 48 h post compound addition
Method: as §9, §10

[8] = 11-point screen (0.02–20 µM), CTB values, two biological replicates, for EC50 values > 20, a value of 20 was used, read-out: MCF10A WT EC50
[9] = 11-point screen (0.02–20 µM), CTB values, averaged between two biological replicates, Supplementary Table 2, read-out: MCF10A CDH1 -/- EC50
[10] = killing control, 384-well, CTB, 11-point curve, 72 hrs post seeding
[11] = 11-point screen, CTB, read-out: MCF10A CDH1^-/- CTB EC50

Nc1ccccc1NC(=O)c1ccc(CNC(=O)OCc2cccnc2)cc1 [Entinostat, entinostat, reference compound]
EC50 (MCF10A WT cells [1]; SL control, 384-well, CTB, 11-point curve, 72 hrs post seeding, read-out: EC50, MCF10A WT): 3.2 µM
EC50 (MCF10A CDH1^−/− cells [2]; SL control, 384-well, CTB, 11-point curve, 72 hrs post seeding, read-out: EC50, MCF10A CDH1-/-): 2.4 µM

CCOc1ccc2nc(C)cc(SCC(O)C(=O)O)c2c1 (stereo not shown) [SLEC-20]
Differential at 1-pt [3]: 23.81
EC50 (MCF10A WT cells [1]; [8]): > 20 µM
activity at 20 µM (MCF10A WT cells [1]; 11-point screen): 92.9%
Differential at 20 μM (MCF10A CDH1^−/− cells [2]; 11-point screen): 70.17
EC50 (MCF10A CDH1^−/− cells [2]; [9]): 9.38 µM

COc1ccc2nccc(Nc3cccc(C(C)=O)c3)c2c1 [SLEC-2]
Differential at 1-pt [3]: 39.99
EC50 (MCF10A WT cells [1]; [8]): 17.7 µM
activity at 20 µM (MCF10A WT cells [1]; 11-point screen): 42.3%
Differential at 20 μM (MCF10A CDH1^−/− cells [2]; 11-point screen): 49.66
EC50 (MCF10A CDH1^−/− cells [2]; [9]): 3.21 µM

COc1cccc2c1C(=O)c1c(O)c3c(c(O)c1C2=O)C[C@@](O)(C(=O)CO)C[C@@H]3O[C@H]1C[C@H](N)[C@H](O)[C@H](C)O1 [Doxorubicin, doxorubicin, reference compound]
EC80, MCF10A WT (MCF10A WT cells [1]; [10]): 0.3 µM
EC80, MCF10A CDH1-/- (MCF10A CDH1^−/− cells [2]; [10]): 0.4 µM

COc1ccc2nc(C)cc(NCC(=O)Nc3cccc(C)c3C)c2c1 [SLEC-12]
EC50 (MCF10A CDH1^−/− cells [4]): 2.45 µM
Differential at 1-pt [3]: 13.92
EC50 (MCF10A WT cells [5]): 13 µM
EC50 (MCF10A WT cells [6]): 12.6 µM
EC50 (MCF10A WT cells [1]; [8]): 19.4 µM
activity at 20 µM (MCF10A WT cells [1]; 11-point screen): 45%
Differential at 20 μM (MCF10A CDH1^−/− cells [2]; 11-point screen): 65.85
EC50 ratio between MCF10A WT and MCF10A CDH1^−/− cells (MCF10A CDH1^−/− cells [2]; 11-point screen, value corresponds to the CTB EC50s of Fig. 5): 6.34 fold change
EC50 (MCF10A CDH1^−/− cells [2]; [11]): 3.06 µM
EC50 ratio (MCF10A WT/MCF10A CDH1^−/−) (MCF10A CDH1^−/− cells [7]): 1.45
EC50 (MCF10A CDH1^−/− cells [7]): 8.98 µM
Differential at 5 µM (%) (MCF10A CDH1^−/− cells [7]): 11.47%

COc1cc(Cl)c(C)cc1NC(=O)c1ccc(CN2CCCC2)cc1 [SLEC-6]
EC50 (MCF10A CDH1^−/− cells [4]): 7.79 µM
EC50 (MCF10A WT cells [5]): 22.6 µM
EC50 (MCF10A WT cells [6]): > 20 µM
EC50 (MCF10A WT cells [1]; 11-point screen, CTB, read-out: MCF10A WT CTB EC50): > 20 µM
EC50 (MCF10A CDH1^−/− cells [2]; [11]): 17.3 µM
EC50 ratio (MCF10A WT/MCF10A CDH1^−/−) (MCF10A CDH1^−/− cells [7]): 1.56
EC50 (MCF10A CDH1^−/− cells [7]): 14.5 µM
Differential at 5 µM (%) (MCF10A CDH1^−/− cells [7]): 20.78* %
